# Data published in patent publication US20130281409A1, “Myelin Sheath Fatty Acids that Resolve Neuroinflammation” (priority 2012, published 2013).
# “Also recorded” adds a separate entry of the source.
# How the values were obtained:
# [1] = test system: splenocytes from PLP139-151-immunized SJL mice; assay: PLP139-151-induced cytokine production by splenocytes of PLP139-151-immunized mice; format: cell-based, mouse; conditions: 30 μg/ml lipid, 48 hours
# Description: PLP-stimulated cells from PLP139-151-immunized mice administered PGPC prophylactically: SJL/J mice were co-injected with PGPC and PLP139-151 in CFA and sacrificed 48 days later. Lymph node cells and splenocytes were then harvested and re-stimulated in vitro (2.5×10^6 cells/ml) with 10 μg/ml of PLP139-151 or with media alone. PLP-stimulated cells from untreated PLP139-151-immunized mice: SJL/J mice were immunized with PLP139-151 in CFA and sacrificed 10 days later. Splenocytes were then harvested and re-stimulated in vitro (at 5×10^5 cells/ml) with 10 μg/ml of PLP139-151 in the presence of 30 μg/ml of POPS, PGPC, azPC ester, or azPC. Cytokine production by cells from the lymph nodes and spleens of PGPC co-immunized mice was measured after 66 hours of stimulation by using the BD OptEIA™ Mouse IFN-γ ELISA kit (BD Biosciences). Cytokine assays for the anti-CD3/anti-CD28 antibody-stimulated T cells and PLP139-151-stimulated splenocytes were performed on culture supernatants after 48 hours of stimulation using the BD OptEIA™ Mouse IL-6, IFN-γ, and TNF alpha ELISA kits (BD Biosciences) and the Mouse IL-17 DuoSet ELISA Development kit (R&D Systems).
# RAW 264.7 cells [2] = assay: Proliferation of LPS-stimulated RAW 264.7 macrophage cells; format: cell-based, mouse; conditions: 30 μg/ml lipid, 100 ng/ml LPS, 48 hours
# Description: LPS-stimulated RAW 264.7 mouse macrophage cells: 1×10^5 cells/ml of RAW 264.7 cells were stimulated with 100 ng/ml of lipopolysaccharide (LPS) in the presence of 30 μg/ml of POPS, PGPC, azPC ester, or azPC.
# RAW 264.7 cells [3] = assay: Apoptosis of LPS-stimulated RAW 264.7 macrophage cells; format: cell-based, mouse; conditions: 30 μg/ml lipid, 100 ng/ml LPS, 48 hours
# Description: LPS-stimulated RAW 264.7 mouse macrophage cells: 1×10^5 cells/ml of RAW 264.7 cells were stimulated with 100 ng/ml of lipopolysaccharide (LPS) in the presence of 30 μg/ml of POPS, PGPC, azPC ester, or azPC. Cells were stained according to standard protocols, run on a FACScan flow cytometer (BD Biosciences), and analysed with CellQuest software (BD Immunocytometry Systems) or with FlowJo software version 6.3.2 (Tree Star, Inc.).
# [4] = test system: EAE in PLP139-151-immunized SJL/J mice; assay: EAE, lipid or palmitic-acid treatment of established disease; format: in vivo, mouse
# Description: Animal experiments were approved by, and performed in compliance with, the National Institute of Health guidelines of the Institutional Animal Care and Use Committee at Stanford University. For induction of EAE, 8- to 12-week-old female SJL/J mice (Jackson Laboratory) were immunized subcutaneously with 100 μg of PLP139-151 emulsified in CFA (Difco Laboratories). Lipid and palmitic-acid treatment: Administration of lipid, palmitic acid, or vehicle was initiated once the PLP139-151-immunized mice developed paralysis (representing clinical EAE) and repeated every other day, for a total of ten separate injections. 100 μg of POPS, PGPC, azPC ester, azPC, palmitic acid, or vehicle (0.05% Tween-20 in PBS) was administered in 0.2 ml intravenously in the tail. EAE treatment with lipid: 100 μg of PGPC or sphingomyelin or vehicle ([…] Tween-20 in PBS) was administered in 0.2 ml intravenously in the tail. Treatment with lipid or vehicle was initiated once the PLP139-151-immunized mice developed paralysis (representing clinical EAE) and repeated 3, 6, 12, and 18 days later, for a total of five separate injections.
# [5] = test system: MBPAc1-11-TCR transgenic splenocytes; assay: MBPAc1-11-specific T-cell proliferation (3H-thymidine incorporation); format: cell-based, mouse; conditions: 30 μg/ml lipid, 2 μg/ml MBPAc1-11
# Description: Splenocytes were harvested from mice transgenic for the MBPAc1-11-specific T-cell receptor and stimulated with 2 μg/ml of MBPAc1-11 in the presence of 30 μg/ml of lipid. Lymph nodes and spleens were also harvested from naive C57BL/6 mice, and CD3^+ T-cell enrichment columns (R&D systems) were used to isolate CD3^+ T cells. The purified CD3^+ T cells were stimulated with 5 μg/ml of plate-bound anti-CD3 antibodies and anti-CD28 antibodies in the presence of 30 μg/ml of POPS, PGPC, azPC ester, brain sulfatides, or azPC, 0.25 mM palmitic acid, or 100% ethanol (as the vehicle control). For assessment of proliferation, 1 μCi of ^3H-thymidine was added to each well for the final 18-24 hours of culture, and incorporation of radioactivity was measured by using a Betaplate scintillation counter. Cytokine assays were performed on culture supernatants after 24 (IL-12p40) or 48 hours (IFN-γ, IL-6, and TNF) of culture by using the BD OptEIA™ Mouse ELISA kits (BD Biosciences).
# 5×10^6 cells/ml were stimulated in vitro with 2 μg/ml of MBPAc1-11 in the presence of various concentrations of palmitic acid (Sigma), other lipids, or 100% Ethanol (vehicle alone).
# For assessment of proliferation, 1 μCi of ^3H-thymidine was added to each well for the final 18 hours of culture, and incorporation of radioactivity was quantified using a Betaplate scintillation counter.
# [6] = test system: naive MBPAc1-11-TCR transgenic splenocytes; assay: MBPAc1-11-induced cytokine production by MBPAc1-11-TCR transgenic splenocytes; format: cell-based, mouse; conditions: 30 μg/ml lipid; for MBPAc1-11-induced IFN-γ production / MBPAc1-11-induced IL-6 production / MBPAc1-11-induced TNF production: 2 μg/ml MBPAc1-11, 48 hours
# Description: Splenocytes were harvested from mice transgenic for the MBPAc1-11-specific T-cell receptor and stimulated with 2 μg/ml of MBPAc1-11 in the presence of 30 μg/ml of lipid. Lymph nodes and spleens were also harvested from naive C57BL/6 mice, and CD3^+ T-cell enrichment columns (R&D systems) were used to isolate CD3^+ T cells. […] Cytokine assays were performed on culture supernatants after 24 (IL-12p40) or 48 hours (IFN-γ, IL-6, and TNF) of culture by using the BD OptEIA™ Mouse ELISA kits (BD Biosciences).
# [7] = 100 μg i.v. once paralysis developed, every other day, ten injections
SMILES,"PLP139-151-induced cytokine production (IL-17, IL-6, IFN-γ, TNF) [1]",proliferation of LPS-activated RAW 264.7 cells (RAW 264.7 cells [2]),apoptosis of LPS-activated RAW 264.7 cells (RAW 264.7 cells [3]),"EAE severity, established disease ([4]; 100 μg i.v. from disease onset (10 days after immunization), five injections)","EAE severity, established disease [4, 7]",T-cell proliferation in response to MBPAc1-11 [5],MBPAc1-11-induced cytokine levels (cytokines not specified) ([6]; effects less dramatic than POPS and azPC),"IL-12p40 production ([6]; 2 μg/ml MBPAc1-11, 24 hours)",MBPAc1-11-induced IFN-γ production [6],MBPAc1-11-induced IL-6 production [6],MBPAc1-11-induced TNF production [6]
"CCCCCCCCCCCCCCCC(=O)OC[C@H](COP(=O)([O-])OCC[N+](C)(C)C)OC(=O)CCCC(=O)O [PGPC, 1-Palmitoyl-2-Glutaroyl-sn-Glycero-3-Phosphocholine]",suppress,suppress proliferation,induce apoptosis,attenuated EAE that was already established,ameliorate established EAE,reduced T-cell proliferation,reduced levels of some of the cytokines,,,,
"CCCCCCCC/C=C\CCCCCCCC(=O)O[C@H](COC(=O)CCCCCCCCCCCCCCC)COP(=O)(O)OC[C@H](N)C(=O)O [POPS, 1-Palmitoyl-2-Oleoyl-sn-Glycero-3-[Phospho-L-Serine]]",suppress,suppress proliferation,induce apoptosis,,ameliorate established EAE,reduced T-cell proliferation,,Neither POPS nor the oxidized phosphatidylcholine derivatives affected production,did not significantly reduce,reduced,reduced
"CCCCCCCCCCCCCCCC(=O)OC[C@H](COP(=O)([O-])OCC[N+](C)(C)C)OC(=O)CCCCCCCC(=O)O [azPC, 1-Palmitoyl-2-Azelaoyl-sn-Glycero-3-Phosphocholine]",suppress,suppressed proliferation; also recorded: suppress proliferation,increased apoptosis; also recorded: induce apoptosis,,ameliorate established EAE,reduced T-cell proliferation,,,reduced,reduced,reduced
